Structures are written as SMILES. “Also recorded” adds a separate entry of the source.

In data set [1] the test system is guinea pig tracheal strip. The data set is described as follows: Isolated trachea preparation (in vitro tracheal strip), pilocarpine-contracted. The class given is cell-based. The settings on record: relative to theophylline = 1.00, molar basis. The procedure: With the exception of theophylline, all compounds were administered as the free base dissolved or suspended in appropriate aqueous vehicles. […] The ethylenediamine portion of the molecule is pharmacologically inert, but renders solubility and convenience of use (Simons et al., S. Med. Journ. 68:802, 1975). For the purpose of comparison, aminophylline was considered to contain 80% free theophylline by weight (Piafsky and Ogilvie, New England J. Med. 292: 1218, 1975). Final comparisons were always based on the calculated dose of theophylline. Because of obvious differences in molecular weights, all compounds were compared on a molar basis rather than on absolute weight.
1. Isolated Trachea Preparation
The in vitro bronchodilator activity of each compound was estimated on the spirally cut guinea pig tracheal strip preparation as described by Constantine, (J. Pharm. Pharmacol. 17:384, 1965). Large Camm English Short Hair male guinea pigs (800-1200 gm.) were employed in order to obtain three spiral tracheal strips from one animal. Strips were suspended in 50 ml. tissue baths containing modified Krebs-Henseleit solution at 38° C. and aerated with 95% O2 /5% CO2. Pilocarpine HCl, 1 mg/liter, was added to the solution to maintain a sustained contraction and to promote rapid recovery of the muscle. A Grass FT 0.03 force displacement transducer was used to electronically record muscle response. Concentration-relaxation relationships were obtained for each compound by logarithmically increasing bath concentration until maximum (100%) relaxation was observed. Tissues were washed between doses and allowed 30 minutes to recover. Linear regression analysis of percent response vs. log of bath concentration allowed calculation of a slope and EC50 value (concentration producing 50% of maximum relaxation) for each compound. Each dose of each compound was tested a minimum of six times.

Data set [2] in a line: Oral LD50 / oral PD50 ratio in guinea pigs. To be noted: guinea pig, in vivo, median lethal dose / median protective dose, relative to theophylline, read-out: Oral LD50 / Oral PD50 (G. Pig), relative. The procedure:
where C is the average control preconvulsive time and T is the test preconvulsive time after compound administration, both in seconds. Animals with control preconvulsive times greater than 2 minutes were not used and if test preconvulsive time was longer than 10 minutes, 100% protection was arbitrarily assumed. The dose of each compound causing 50% protection (PD50) was calculated by the method of Litchfield and Wilcoxon (J. Pharmacol. Exp. Ther. 96:99, 1949).
The PD50 of each experimental compound was determined after both intraperitoneal and oral administration. A minimum of 3 dose levels and 6 animals per dose were employed to obtain meaningful dose-response data. Protection was assessed 15-20 minutes after intraperitoneal injection and 35-40 minutes after oral gavage with a flexible plastic tube. Animals were fasted overnight prior to oral dosing. All compounds were administered in aqueous solution in concentrations commensurate to a proper volume dose. Guinea pigs were utilized between 1 and 3 times but no animal received the same compound twice in succession with a minimum of 3 days rest between doses.
2. Oral LD50 in Guinea Pigs
The acute median lethal dose of each compound after oral administration was also determined in guinea pigs. Camm English Short Hair albino guinea pigs with sexes equally represented and ranging in weight from 255 to 311 gm. were used. A minimum of six animals per dose level were employed. Oral dosing was accomplished with a flexible tube inserted into the stomach. All guinea pigs were fasted overnight. […] The other compounds were dissolved in distilled water. Following administration of the appropriate doses, acute responses and lethalities were observed and LD50 values were calculated by the method of Litchfield and Wilcoxon (J. Pharmacol. Exp. Ther. 96:99, 1949).

For data set [3], the system named is dog hind limb. Description: Dog hind limb perfusion preparation (vasodilator). The class given is in vivo. The settings on record: intra-arterial; relative to theophylline, molar basis. The source says:
1. Dog Hind Limb Perfusion Preparation
A total of 12 adult mongrel dogs of either sex were used to assess the direct intra-arterial dilating capacity of the five experimental compounds. […] This was accomplished with a Harvard Variable Speed Peristaltic Pump after proximal and distal cannualtion of the femoral artery. Changes in arterial vascular resistance were reflected as changes in perfusion pressure as measured from a T-tube on the distal side of the pump. Mean systemic arterial pressure was also recorded from the contralateral femoral artery. Drug solutions, dissolved in saline, were injected into the arterial blood supply immediately prior to entering the cannulated distal artery. Logarithmically increasing doses were given at 10-minute intervals and responses were recorded.

Data set [4] can be described thus: Intravenous emetic study in dogs (ED50). The data set is classed as in vivo, dog. The settings on record: dog, in vivo, iv; read-out: ED50 (median emetic dose), I.V. Dogs. The procedure: (§1) Twelve adult mongrel dogs of either sex were employed to determine the median emetic dose (ED50) of all five experimental compounds after intravenous administration. […] Onset, frequency, and duration of emetic episodes were also recorded. The dogs were not fasted, were allowed at least 2 days rest between doses, and no animal received the same compound twice in succession. […] ED50 values were calculated according to the method of Litchfield and Wilcoxon (1949).

Data set [5] has as its system dogs. Description: Intravenous emetic study in dogs (ED50). The data set is classed as in vivo, dog. The settings on record: for Emetic effect, I.V. Dogs: estimated at HBD; for I.V. Emetic (Dogs), relative molar activity: relative to theophylline, molar basis. The procedure: as §1
The conditions of data set [6]: prior art statement; listed as dyphylline; cited from earlier work.
The conditions of data set [7]: prior art statement; cited from earlier work.
Data set [8] can be described thus: Acute toxicity and side effects. To be noted: compared with theophylline.
For data set [9] the following is noted: U.S. Pat. No. 2,756,229, in comparison with theophylline; cited from earlier work.

As to `Cn1c(=O)c2c(ncn2CC(O)CO)n(C)c1=O` (stereo not shown) [Compound II, 7-(2,3-dihydroxypropyl) 1,3-dimethylxanthine], the “Bronchodilator activity, In-Vitro (Tracheal Strip), relative molar activity” value in [1] is listed as 0.16. In addition, the selectivity ratio in [2] amounted to 2. In data set [3], the “Vasodilator, HLPP (Dogs), relative molar activity” value is 0.06. Besides, the median effective dose (ED50) in data set [4] is 900 mg/kg. Besides, in [5], the “Emetic effect, I.V. Dogs” value is “None” and the “I.V. Emetic (Dogs), relative molar activity” value was 0.09. Also, the “Bronchodilator activity / potency in words (prior art)” value in [6] is “less bronchodilator potency than theophylline; also recorded: markedly decreases overall potency”. Besides, the “Water solubility in words (prior art)” value in [7] is “high water solubility”.
`CCCn1c(=O)c2c(ncn2CC(O)CO)n(CCC)c1=O` (stereo not shown) [Compound V, 7-(2,3-dihydroxypropyl)-1,3-di-n-propylxanthine]: the “Bronchodilator activity, In-Vitro (Tracheal Strip), relative molar activity” value in data set [1] is 0.99. Moreover, the selectivity ratio in data set [2] was 3.75. Moreover, in [3], the “Vasodilator, HLPP (Dogs), relative molar activity” value turned out to be 0.40. Further, in data set [4], the ED50 stood at 53 mg/kg. Moreover, in data set [5], the “Emetic effect, I.V. Dogs” value is on record as “None” and the “I.V. Emetic (Dogs), relative molar activity” value worked out at 1.91. Further, in data set [8], the “Acute toxicity, emetic, cardiovascular, CNS and diuretic effects in words” value (from here on “Acute toxicity, emetic, cardiovascular”) was “less active in regard to acute toxicity as well as undesirable cardiovascular, CNS, diuretic and oral emetic effects”.
For the compound `CCCn1c(=O)c2c(ncn2CC(C)O)n(CCC)c1=O` (stereo not shown) [III, 7-(2-hydroxypropyl) 1,3-di-n-propylxanthine], in data set [1], the “Bronchodilator activity, In-Vitro (Tracheal Strip), relative molar activity” value amounted to 1.86. The selectivity ratio in [2] came out at 5.43. In [3], the “Vasodilator, HLPP (Dogs), relative molar activity” value was 0.76. In addition, in data set [4], the ED50 was 0.7 mg/kg. Moreover, in data set [5], the “Emetic effect, I.V. Dogs” value is on record as “Severe” and the “I.V. Emetic (Dogs), relative molar activity” value turned out to be 134.17. Also, the “Diuretic activity in words (prior art)” value in data set [9] is “strong diuretics”. Also, the “Acute toxicity, emetic, cardiovascular” value in data set [8] is “increased undesirable emetic, cardiovascular and central nervous system (CNS) effects”.
Take `CCCn1c(=O)c2c(ncn2CCCO)n(CCC)c1=O` [IV, 7-(3-hydroxypropyl)-1,3-di-n-propylxanthine]: the “Bronchodilator activity, In-Vitro (Tracheal Strip), relative molar activity” value in data set [1] turned out to be 2.05. In addition, the selectivity ratio in data set [2] was found to be 3.57. In addition, the “Vasodilator, HLPP (Dogs), relative molar activity” value in data set [3] amounted to 1.06. In [4], the ED50 was determined as 7.5 mg/kg. Besides, in data set [5], the “Emetic effect, I.V. Dogs” value is given as “Moderate” and the “I.V. Emetic (Dogs), relative molar activity” value is reported as 12.88. In addition, the “Diuretic activity in words (prior art)” value in data set [9] is on record as “strong diuretics”. Besides, the “Acute toxicity, emetic, cardiovascular” value in [8] was “increased undesirable emetic, cardiovascular and central nervous system (CNS) effects”.

Values taken from US4031218A, “7-(2,3-Dihydroxypropyl-1,3-di-n-propylxanthine and a pharmaceutical composition containing same useful as a bronchial muscle relaxant” (Mallinckrodt, Inc., priority 1976, dated 1977).
